# Reference: US20160129080A1, “TREATMENT OF POLYPOIDAL CHROIDAL VASCULOPATHY” (priority 2013, published 2016)
# B1: ranibizumab (antibody, chains of the INN, looked up, V domains shown)
# VH: EVQLVESGGGLVQPGGSLRLSCAASGYDFTHYGMNWVRQAPGKGLEWVGWINTYTGEPTYAADFKRRFTFSLDTSKSTAYLQMNSLRAEDTAVYYCAKYPYYYGTSHWYFDVWGQGTLVTVSS
# VL: DIQLTQSPSSLSASVGDRVTITCSASQDISNYLNWYQQKPGKAPKVLIYFTSSLHSGVPSRFSGSGSGTDFTLTISSLQPEDFATYYCQQYSTVPWTFGQGTKVEIK
# modifications: Fab
# notes: anti-VEGF antibody antagonist approved for human use
# Tests used:
# [1] = Indocyanine green angiography-assessed complete regression of polyps, randomized three-group patient study; type: in vivo, human; conditions: month 6, 61 patients randomized to three groups, ranibizumab 0.5 mg intravitreal
# Method: (§1) Sixty-one patients were randomized to three treatment groups: verteporfin photodynamic therapy, ranibizumab 0.5 mg, or the combination. Patients were administered with verteporfin photodynamic therapy/placebo and initiated with three consecutive monthly intravitreal ranibizumab/sham injections starting from day 1 (first photodynamic therapy session). Indocyanine green angiography was performed at baseline and at months 3, 4, 5, and 6. Fluorescein angiography was performed to assess the presence of leakage and to obtain fundus photographs at the same times. Changes in central retinal thickness were determined by optical coherence tomography. Treatment with ranibizumab/sham injections was repeated at months 3-5 on an as-needed basis.
# (§2) The primary endpoint was the proportion of patients with indocyanine green angiography-assessed complete regression of polyps at month 6. Secondary endpoints included mean change in best corrected visual acuity at month 6 and safety.
# [2] = Best corrected visual acuity change, randomized three-group patient study; type: in vivo, human; conditions: month 6; mean±SD; ranibizumab 0.5 mg intravitreal
# Method: as §1, §2
Molecule,proportion of patients with complete polyp regression [1] [%],Mean change±standard deviation in best corrected visual acuity [2] [letters]
verteporfin,71.4,7.5±10.6
B1,28.6,9.2±12.4
